Assay results as given in article PMC2749524 (Cancer research, 2009).

How the values were obtained:
[1] = test system: U87MG xenografts (tumor glucose metabolism); assay: FDG microPET/CT tumor uptake in U87MG xenografts
[2] = test system: αVβ3 focal adhesions in U87MG cells; assay: Immunofluorescence of dimerized αVβ3; type: cell-based, human; conditions: 100 nM, 3 h, U87MG on fibronectin
[3] = test system: αVβ3 integrin on U87MG cells; assay: Flow cytometry of surface αVβ3 integrin expression; type: cell-based, human; conditions: 100 nM, 6 or 24 h, FACS, LM609 antibody, samples in duplicate
U87MG xenografts [4] = assay: Histology and immunohistochemistry of frozen tumor sections; type: in vivo, SCID mice; conditions: 95 mg/kg, 72 h
[5] = test system: Src family kinases / Focal Adhesion Kinase phosphorylation in U87MG cells; assay: Western blot of phospho-Src, phospho-FAK and β3 in U87MG cell lysates; type: cell-based, human; conditions: 100 nM
[6] = test system: U87MG xenografts (αVβ3 integrin activity); assay: microPET/CT tumor uptake of [^64Cu]DOTA–c; type: in vivo, SCID mice; conditions: 72 h; for reduction of [^64Cu]DOTA–c(RGDfK) tumor uptake: vs vehicle controls, PET 15 h post injection
U87MG xenografts [7] = assay: U87MG xenograft tumor growth; type: in vivo, SCID mice

| Compound | tumor FDG uptake in vehicle controls ([1]; U87MG xenograft, 7–10 MBq FDG, 1 h uptake, mean ± SD) [% ID/g] | αVβ3 clustering in focal adhesion complexes [2] | change in tumor FDG uptake ([1]; 95 mg/kg, 72 h, p=0.1704) | total dimerized cell surface αVβ3 protein level [3] | tumor viability and vascularization (H&E, CD31) (U87MG xenografts [4]) | phospho-FAK (Y861) staining in tumors (U87MG xenografts [4]; immunohistochemistry, relative to control) | αVβ3 staining in tumors (U87MG xenografts [4]; treated vs control, LM609 antibody) | total β3 levels ([5]; 6 or 24 h) | FAK phosphorylation at tyrosine 397 ([5]; 6 h) | FAK phosphorylation at tyrosine 861 ([5]; 6 h) | SFK phosphorylation at tyrosine 416 ([5]; 6 h) | reduction of [^64Cu]DOTA–c(RGDfK) tumor uptake ([6]; 72 mg/kg daily gavage) [%] | reduction of [^64Cu]DOTA–c(RGDfK) tumor uptake ([6]; 95 mg/kg daily gavage) [%] | tracer distribution and organ uptake, treated vs untreated animals ([6]; 95 mg/kg, dynamic PET, normal organs, except U87 xenografts) | difference in tumor size between control and treated animals (U87MG xenografts [7]; after 10 consecutive days of treatment) | difference in tumor size at the time of PET imaging (U87MG xenografts [7]; day 3, p=0.1272) |
| --- | --- | --- | --- | --- | --- | --- | --- | --- | --- | --- | --- | --- | --- | --- | --- | --- |
| OC[C@H]1OC(O)[C@H]([18F])[C@@H](O)[C@@H]1O (stereo partly shown) [FDG, [^18F]fluorodeoxyglucose] | 10.39±1.04 |  |  |  |  |  |  |  |  |  |  |  |  |  |  |  |
| Cc1nc(Nc2ncc(C(=O)Nc3c(C)cccc3Cl)s2)cc(N2CCN(CCO)CC2)n1 [dasatinib] |  | no longer clustered in focal adhesion complexes | no significant change | did not change relative to control | remained viable and vascularized | reduced | no difference | nor did total β3 levels decrease | decrease | target inhibition | target inhibition | 39 | 59 | virtually identical | six-fold | no appreciable difference |
